± gives the expanded uncertainty stated by the source.
Experiment: molar heat capacity at constant pressure
Details: 101.33 kPa, Crystal, Small sample (50 mg) DSC

Nc1c[nH]c(=O)[nH]c1=O [2,4(1H,3H)-pyrimidinedione, 5-amino-]
molar heat capacity at constant pressure (298.15 K): 145 ± 2.9 J/K/mol | molar heat capacity at constant pressure (303.15 K): 145.5 ± 2.9 J/K/mol | molar heat capacity at constant pressure (308.15 K): 146.2 ± 2.9 J/K/mol | molar heat capacity at constant pressure (313.15 K): 147 ± 2.9 J/K/mol | molar heat capacity at constant pressure (318.15 K): 148 ± 3 J/K/mol | molar heat capacity at constant pressure (323.15 K): 148.4 ± 3 J/K/mol | molar heat capacity at constant pressure (328.15 K): 149.1 ± 3 J/K/mol | molar heat capacity at constant pressure (333.15 K): 150 ± 3 J/K/mol | molar heat capacity at constant pressure (338.15 K): 150.6 ± 3 J/K/mol | molar heat capacity at constant pressure (343.15 K): 151.3 ± 3 J/K/mol

Cn1c(N)cc(=O)n(C)c1=O [6-amino-1,3-dimethyluracil]
molar heat capacity at constant pressure (298.15 K): 189 ± 3.8 J/K/mol | molar heat capacity at constant pressure (303.15 K): 191 ± 3.8 J/K/mol | molar heat capacity at constant pressure (308.15 K): 193.1 ± 3.9 J/K/mol | molar heat capacity at constant pressure (313.15 K): 195.2 ± 3.9 J/K/mol | molar heat capacity at constant pressure (318.15 K): 197.3 ± 3.9 J/K/mol | molar heat capacity at constant pressure (323.15 K): 199.5 ± 4 J/K/mol | molar heat capacity at constant pressure (328.15 K): 201.6 ± 4 J/K/mol | molar heat capacity at constant pressure (333.15 K): 204 ± 4.1 J/K/mol | molar heat capacity at constant pressure (338.15 K): 206 ± 4.1 J/K/mol | molar heat capacity at constant pressure (343.15 K): 208 ± 4.2 J/K/mol

Cn1c(N)cc(=O)[nH]c1=O [6-amino-1-methyluracil]
molar heat capacity at constant pressure (298.15 K): 166.2 ± 3.3 J/K/mol | molar heat capacity at constant pressure (303.15 K): 167 ± 3.3 J/K/mol | molar heat capacity at constant pressure (308.15 K): 168 ± 3.4 J/K/mol | molar heat capacity at constant pressure (313.15 K): 168.5 ± 3.4 J/K/mol | molar heat capacity at constant pressure (318.15 K): 169.2 ± 3.4 J/K/mol | molar heat capacity at constant pressure (323.15 K): 170 ± 3.4 J/K/mol | molar heat capacity at constant pressure (328.15 K): 171 ± 3.4 J/K/mol | molar heat capacity at constant pressure (333.15 K): 171.4 ± 3.4 J/K/mol | molar heat capacity at constant pressure (338.15 K): 172.2 ± 3.4 J/K/mol | molar heat capacity at constant pressure (343.15 K): 173 ± 3.5 J/K/mol

Nc1cc(O)nc(O)n1 [6-aminouracil]
molar heat capacity at constant pressure (298.15 K): 147 ± 2.9 J/K/mol | molar heat capacity at constant pressure (303.15 K): 147.6 ± 3 J/K/mol | molar heat capacity at constant pressure (308.15 K): 148.2 ± 3 J/K/mol | molar heat capacity at constant pressure (313.15 K): 149 ± 3 J/K/mol | molar heat capacity at constant pressure (318.15 K): 149.6 ± 3 J/K/mol | molar heat capacity at constant pressure (323.15 K): 150.3 ± 3 J/K/mol | molar heat capacity at constant pressure (328.15 K): 151 ± 3 J/K/mol | molar heat capacity at constant pressure (333.15 K): 151.6 ± 3 J/K/mol | molar heat capacity at constant pressure (338.15 K): 152.3 ± 3 J/K/mol | molar heat capacity at constant pressure (343.15 K): 153 ± 3.1 J/K/mol

From the NIST ThermoML archive (doi:10.1021/je6005168)
